Data published in patent US10941121B2 (AZIENDA OSPEDALIERA UNIVERSITARIA SENESE, priority 2015, dated 2021).
Read-outs that look alike come from different tables or passages of the source.

Experiments:
[1] = Cytotoxicity in the JEV cell culture system; conditions: hamster
[2] = test system: HCV Jc1 (genotype 2a virus); assay: HCV infectious cell culture system, NS5A immunostaining; conditions: Hepatitis C virus, Huh7.5, read-out: HCV EC50
NS3 (DENV) = NS3 (DENV) (Orthoflavivirus denguei (Dengue virus), UniProt P29990); assay: Selectivity of 20a: NS3 (DENV); type: biochemical
NS3 (DENV), sequence (P29990 1476-2093): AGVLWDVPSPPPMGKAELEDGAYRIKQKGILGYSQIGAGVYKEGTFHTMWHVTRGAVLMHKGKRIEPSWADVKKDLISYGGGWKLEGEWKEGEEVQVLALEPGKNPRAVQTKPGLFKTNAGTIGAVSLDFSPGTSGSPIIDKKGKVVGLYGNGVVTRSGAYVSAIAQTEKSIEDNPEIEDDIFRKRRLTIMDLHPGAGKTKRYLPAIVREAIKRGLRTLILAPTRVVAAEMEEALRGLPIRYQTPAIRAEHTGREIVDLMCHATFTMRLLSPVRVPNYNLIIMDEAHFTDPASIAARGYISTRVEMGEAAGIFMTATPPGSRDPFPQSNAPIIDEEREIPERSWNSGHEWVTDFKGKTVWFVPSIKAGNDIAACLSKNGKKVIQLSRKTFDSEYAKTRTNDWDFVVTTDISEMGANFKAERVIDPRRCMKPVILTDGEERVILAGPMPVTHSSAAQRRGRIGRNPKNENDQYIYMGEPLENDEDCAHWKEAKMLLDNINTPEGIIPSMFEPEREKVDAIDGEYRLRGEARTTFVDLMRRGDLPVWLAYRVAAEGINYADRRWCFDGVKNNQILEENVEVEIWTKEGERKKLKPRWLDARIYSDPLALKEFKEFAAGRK

[3] = test system: HIV-1 wild-type reference strain NL4-3; assay: HIV-1 phenotypic assay, MT-2 cells then TZM-bl cells, luciferase; type: cell-based; conditions: Human immunodeficiency virus 1, NL43
HIV (PBMC) = assay: HIV infectious cell culture system in PBMC, HIV-1 RNA in supernatant; conditions: Human immunodeficiency virus 1, PBMC, 72 h, read-out: EC50 HIV (PBMC) 72 h
DDX3 Helicase = DDX3 Helicase (Homo sapiens, UniProt O00571); conditions: read-out: ID50 (μM) against DDX3 Helicase; n.a. = compound not active
DDX3 Helicase, sequence (O00571 whole entry): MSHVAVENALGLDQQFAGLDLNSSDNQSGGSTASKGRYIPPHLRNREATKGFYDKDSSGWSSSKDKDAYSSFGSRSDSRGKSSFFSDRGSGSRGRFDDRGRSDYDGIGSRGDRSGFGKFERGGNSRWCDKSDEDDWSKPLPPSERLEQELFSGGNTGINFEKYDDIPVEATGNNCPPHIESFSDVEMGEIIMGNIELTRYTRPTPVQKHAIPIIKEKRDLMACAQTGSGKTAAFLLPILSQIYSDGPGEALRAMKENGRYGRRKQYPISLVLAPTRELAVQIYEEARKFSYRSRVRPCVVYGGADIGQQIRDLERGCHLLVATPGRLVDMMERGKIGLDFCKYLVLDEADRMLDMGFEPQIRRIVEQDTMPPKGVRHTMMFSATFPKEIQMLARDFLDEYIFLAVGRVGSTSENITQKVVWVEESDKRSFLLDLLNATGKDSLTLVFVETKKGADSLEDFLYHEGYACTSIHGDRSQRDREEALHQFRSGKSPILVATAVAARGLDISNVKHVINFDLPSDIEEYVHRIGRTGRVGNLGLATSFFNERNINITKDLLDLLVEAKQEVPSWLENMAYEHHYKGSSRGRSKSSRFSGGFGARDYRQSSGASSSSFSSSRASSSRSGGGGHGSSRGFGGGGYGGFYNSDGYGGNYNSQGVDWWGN

JEV strain (NJ2008) = assay: JEV infectious cell culture system, plaque formation assay in BHK-21 cells; conditions: Japanese encephalitis virus, BHK-21, read-out: JEV EC50
[4] = test system: human liver microsome (HLM); assay: Microsomal Stability Assay; conditions: human liver microsomes, 37 °C, 60 min, compound 50 μM; percentage of not metabolized compound
NS3 (HCV) = NS3 (HCV) (Hepacivirus hominis (Hepatitis C virus), UniProt P26663); assay: Selectivity of 20a: NS3 (HCV); type: biochemical
NS3 (HCV), sequence (P26663 1027-1657): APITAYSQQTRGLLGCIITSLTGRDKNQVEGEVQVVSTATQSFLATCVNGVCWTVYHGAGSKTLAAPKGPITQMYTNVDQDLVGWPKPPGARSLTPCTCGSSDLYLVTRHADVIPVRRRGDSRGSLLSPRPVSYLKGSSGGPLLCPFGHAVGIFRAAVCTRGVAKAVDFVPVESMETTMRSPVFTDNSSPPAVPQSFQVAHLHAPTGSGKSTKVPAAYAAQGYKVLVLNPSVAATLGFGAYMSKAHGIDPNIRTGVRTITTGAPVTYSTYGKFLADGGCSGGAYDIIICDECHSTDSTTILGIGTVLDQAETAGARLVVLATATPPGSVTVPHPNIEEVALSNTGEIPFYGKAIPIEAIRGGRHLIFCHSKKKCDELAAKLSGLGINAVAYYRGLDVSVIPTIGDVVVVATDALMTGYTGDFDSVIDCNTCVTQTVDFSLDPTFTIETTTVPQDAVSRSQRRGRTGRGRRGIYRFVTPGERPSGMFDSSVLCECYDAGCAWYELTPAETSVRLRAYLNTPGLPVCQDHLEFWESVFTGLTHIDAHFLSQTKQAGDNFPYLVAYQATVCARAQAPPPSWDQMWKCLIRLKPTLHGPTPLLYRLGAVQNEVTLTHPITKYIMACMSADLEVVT

[5] = test system: HIV-1 strains carrying resistance mutations; assay: microbe, parasite or virus in culture; type: cell-based; conditions: for IC50: Human immunodeficiency virus 1, TZM-bl

SMILES: CCCCc1cn(-c2ccc(NC(=O)Nc3ccccc3C)cc2)nn1 [Compound 20a, 1-(4-(4-butyl-1H-1,2,3-triazol-1-yl)phenyl)-3-o-tolylurea]
- CC50 [1]: > 50000 nM
- EC50 [2]: 3800 nM
- IC50 (NS3 (DENV)): > 200000 nM
- EC50 ([3]; first cycle in MT-2 cells, additional round in TZM-bl cells): 1100 nM
- IC50 ([3]; strain 114, NL4-3 wild type, read-out: IC50 [95% CI] (μM), HIV-1 strain 114): 1.11 µM
- EC50 (HIV (PBMC)): 30000 nM
- IC50 (DDX3 Helicase): 0.3 µM
- EC50 (JEV strain (NJ2008)): 20000 nM
- Metabolic stability (Sability %) [4]: 99%
- IC50 (NS3 (HCV)): 16800 nM
- IC50 ([5]; read-out: IC50 [95% CI] (μM), HIV-1 strain 7404): 0.22 µM
- IC50 ([5]; read-out: IC50 [95% CI] (μM), HIV-1 strain 7406): 0.33 µM
- IC50 ([5]; read-out: IC50 [95% CI] (μM), HIV-1 strain 11808): 0.23 µM
- IC50 ([5]; read-out: IC50 [95% CI] (μM), HIV-1 strain 11845): 0.37 µM
- IC50 ([5]; read-out: IC50 [95% CI] (μM), HIV-1 strain 12227): 0.94 µM
- IC50 ([5]; read-out: IC50 [95% CI] (μM), HIV-1 strain 12235): 0.36 µM
- Fold change, strain 7404 ([5]; resistant strain IC50 to wild type strain IC50 ratio, 7404 NRTIs): 0.2
- Fold change, strain 7406 ([5]; resistant strain IC50 to wild type strain IC50 ratio, 7406 NRTIs): 0.3
- Fold change, strain 11808 ([5]; resistant strain IC50 to wild type strain IC50 ratio, 11808 PIs): 0.2
- Fold change, strain 11845 ([5]; resistant strain IC50 to wild type strain IC50 ratio, 11845 INIs): 0.3
- Fold change, strain 12227 ([5]; resistant strain IC50 to wild type strain IC50 ratio, 12227 NNRTIs): 0.8
- Fold change, strain 12235 ([5]; resistant strain IC50 to wild type strain IC50 ratio, 12235 NNRTIs): 0.3
- activity against resistant HIV viruses, in words ([5]; viruses carrying resistance mutations): retained full activity
